Reference: publication PMC11249637, “Interaction of the Atypical Tetracyclines Chelocardin and Amidochelocardin with Renal Drug Transporters” (ACS Pharmacology & Translational Science, 2024)

What was measured:
[1] = design: method as in PMID 38047701; conditions: 15 mg/kg IV; up to 8 h post administration; cited from earlier work
[2] = molecular target: T1, mOat1 (Mus musculus, UniProt Q8VC69); assay: Two-point inhibition of mOat1-mediated PAH uptake in transfected HEK293 cells; format: in vitro ADME; conditions: PAH 10 μM, 1 min
T1 construct: expressed in transfected cells; host or cells: HEK293
T1 sequence (Q8VC69 1-545): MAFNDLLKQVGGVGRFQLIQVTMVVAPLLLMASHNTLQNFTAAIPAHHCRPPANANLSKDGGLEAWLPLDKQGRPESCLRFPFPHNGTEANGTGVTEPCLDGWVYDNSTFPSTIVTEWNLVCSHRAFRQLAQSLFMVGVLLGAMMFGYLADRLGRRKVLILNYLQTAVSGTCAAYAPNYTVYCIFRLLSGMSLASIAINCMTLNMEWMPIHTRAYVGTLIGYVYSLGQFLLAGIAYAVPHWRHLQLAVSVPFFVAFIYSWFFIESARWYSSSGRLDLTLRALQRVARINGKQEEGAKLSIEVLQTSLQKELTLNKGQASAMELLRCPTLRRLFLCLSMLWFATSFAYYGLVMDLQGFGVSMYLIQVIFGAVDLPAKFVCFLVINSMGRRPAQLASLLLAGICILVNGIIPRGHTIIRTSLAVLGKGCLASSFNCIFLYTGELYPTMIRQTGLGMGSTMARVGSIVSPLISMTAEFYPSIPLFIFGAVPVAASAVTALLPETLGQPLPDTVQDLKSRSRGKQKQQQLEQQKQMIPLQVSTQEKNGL
Method: Well-characterized mOct1-, mOct2-, mOat1-, mOat2-, mOat3-, mMate1-, hOAT1-, hOAT3-, hOAT4-, hMRP2-, mMdr1a- and mMdr1b-transfected HEK293 cells and the respective vector-transfected control HEK293 cells were used.[42],[51],[52] All HEK293 cells (transporter-transfected and vector-transfected) were cultured in DMEM (Sigma, high glucose, 10% FBS, 1% penicillin (10,000 Units/mL)/streptomycin (10 mg/mL)) at 37°C under 5% CO2 in humidified atmosphere. The cells were routinely checked for the absence of mycoplasma infection. For the preparation of HEK293 cell monolayers, 24-well plates were pretreated with a poly-D-lysine hydrobromide solution (0.1 mg/mL). Each well was coated with 0.5 mL of poly-D-lysine solution and incubated for at least 15 min. After complete removal of the solution, the plates were dried for 30 min. Cells (vector-transfected and transporter-transfected) treated with trypsin were immediately seeded into 24-well plates and cultured for 3 days before being used for transport experiments.
For the uptake assay, the growth medium was aspirated, and each well was rinsed three times with 0.5 mL of incubation buffer (HBSS supplemented with 20 mM HEPES, pH 7.4) and incubated for 20 min at 37 °C. Afterward, buffers were removed, and 200 μL of the incubation buffer containing a radiolabeled substrate and the nonlabeled CHD and CDCHD or reference inhibitor (Table S1), respectively, was added to each well and incubated at 37 °C for designated time intervals. […] Cells were solubilized with 0.6 mL of 1N NaOH overnight and transferred into scintillation vials. ^3H and ^14C contents were measured after the addition of 2.5 mL of scintillator in a liquid scintillation counter.
The cellular protein amount was determined in parallel for each cell line (vector- and transporter-transfected) from six wells in a different 24-well reference plate using the Bradford method. […]
The inhibitory effect (I(%)) was calculated according to the formula: [drawing 5] […]

## CC(=O)C1=C(O)[C@@H](N)[C@H]2Cc3c(c(O)c4c(O)c(C)ccc4c3C)C(=O)[C@@]2(O)C1=O [CHD, chelocardin]
[1]
  urine levels of CHD compared to CDCHD: 10 fold
[2]; 1 and 10 μM tested
  inhibitory effect on mOat1: less than 50%
[2]; 1 and 10 μM
  inhibitory effect on mOat1 (in words): concentration-dependent inhibitory effects
[2]; HEK293, at 10 μM, read-out: inhibitory effect on mOat1
  inhibition at 10 µM: ~50%
